The values below are quoted from earlier work in patent US20240158423A1, “TWO-COMPARTMENT BIPOLAR MEMBRANE ELECTRODIALYSIS OF SALTS OF AMINO ACIDS” (MONSANTO TECHNOLOGY LLC, priority 2021, published 2024).

Where two headings read alike, the source gives them in different places.

`O=C(O)CNCC(=O)O` [IDA, iminodiacetic acid]: the solubility entry is listed as “less than 4 g IDA/100 g H2O” (in water at a temperature of 10° C.) and “approximately 14 g IDA/100 g H2O” (in water at a temperature of 60° C.).
